Results taken from ChEMBL document CHEMBL3885881, “DrugMatrix”.

Organism: Rattus norvegicus
Experiment: DrugMatrix - Regimen: Daily Repeat
Type: toxicity, organism-based, Sprague-Dawley
Parameters: regimen Daily Repeat, gender Male, age 6-8 weeks
Details: in vivo, po, route oral GAVAGE, […]; for ABSOLUTE BASOPHIL / ABSOLUTE EOSINOPHIL / ABSOLUTE LYMPHOCYTE / ABSOLUTE MONOCYTE / ABSOLUTE SEGMENTED NEUTROPHIL / BASOPHIL / EOSINOPHIL / ERYTHROCYTE COUNT / HEMATOCRIT / HEMOGLOBIN / LEUKOCYTE COUNT / LYMPHOCYTE / MEAN CORPUSCULAR HEMOGLOBIN / MEAN CORPUSCULAR HEMOGLOBIN CONCENTRATION / MEAN CORPUSCULAR VOLUME / MONOCYTE / NEUTROPHIL / NUCLEATED RED BLOOD CELLS / PLATELET COUNT: tissue Blood; for ALANINE AMINOTRANSFERASE / ALBUMIN / ALKALINE PHOSPHATASE / ASPARTATE AMINOTRANSFERASE / BLOOD UREA NITROGEN / CARBON DIOXIDE / CHLORIDE / CHOLESTEROL / CREATINE PHOSPHOKINASE / CREATININE / GLUCOSE / LACTATE DEHYDROGENASE / LIPASE / PHOSPHORUS / POTASSIUM / SODIUM / TOTAL BILIRUBIN / TOTAL PROTEIN / URIC ACID: tissue Plasma
[1] = 3 mg/kg, 120 h, dose level Low, time 5 day
[2] = 110 mg/kg, 72 h, dose level High, time 3 day
[3] = 110 mg/kg, 120 h, dose level High, time 5 day

Cc1cccc(Nc2ccncc2S(=O)(=O)NC(=O)NC(C)C)c1 [TORSEMIDE]
ABSOLUTE BASOPHIL [1]: 0 CELLS/uL
ABSOLUTE EOSINOPHIL [1]: 64 CELLS/uL
ABSOLUTE LYMPHOCYTE [1]: 7502 CELLS/uL
ABSOLUTE MONOCYTE [1]: 142 CELLS/uL
ABSOLUTE SEGMENTED NEUTROPHIL [1]: 525.33 CELLS/uL
BASOPHIL [1]: 0%
EOSINOPHIL [1]: 0.67%
ERYTHROCYTE COUNT [1]: 5.57 x10E6/uL
HEMATOCRIT [1]: 35.4%
HEMOGLOBIN [1]: 13.63 G/DL
LEUKOCYTE COUNT [1]: 8.23 x10E3/uL
LYMPHOCYTE [1]: 91.33%
MEAN CORPUSCULAR HEMOGLOBIN [1]: 24.57 pg
MEAN CORPUSCULAR HEMOGLOBIN CONCENTRATION [1]: 38.5 G/DL
MEAN CORPUSCULAR VOLUME [1]: 63.67 fL
MONOCYTE [1]: 1.67%
NEUTROPHIL [1]: 6.33%
NUCLEATED RED BLOOD CELLS [1]: 0 /100WBC
PLATELET COUNT [1]: 1174 x10E3/uL
ALANINE AMINOTRANSFERASE [1]: 54.67 u/L
ALBUMIN [1]: 4 G/DL
ALKALINE PHOSPHATASE [1]: 376.67 u/L
ASPARTATE AMINOTRANSFERASE [1]: 76 u/L
BLOOD UREA NITROGEN [1]: 11.67 mg/dL
CARBON DIOXIDE [1]: 31.33 mmol/L
CHLORIDE [1]: 100 MEQ/L
CHOLESTEROL [1]: 63.67 mg/dL
CREATINE PHOSPHOKINASE [1]: 293.67 u/L
CREATININE [1]: 0.14 mg/dL
GLUCOSE [1]: 148.67 mg/dL
LACTATE DEHYDROGENASE [1]: 190.33 u/L
LIPASE [1]: 10.33 u/L
PHOSPHORUS [1]: 11.3 mg/dL
POTASSIUM [1]: 6.36 MEQ/L
SODIUM [1]: 144.87 MEQ/L
TOTAL BILIRUBIN [1]: 0.17 mg/dL
TOTAL PROTEIN [1]: 6.03 G/DL
URIC ACID [1]: 0.47 mg/dL
ABSOLUTE BASOPHIL [2]: 0 CELLS/uL
ABSOLUTE EOSINOPHIL [2]: 0 CELLS/uL
ABSOLUTE LYMPHOCYTE [2]: 16133.33 CELLS/uL
ABSOLUTE MONOCYTE [2]: 63.33 CELLS/uL
ABSOLUTE SEGMENTED NEUTROPHIL [2]: 1136.67 CELLS/uL
BASOPHIL [2]: 0%
EOSINOPHIL [2]: 0%
ERYTHROCYTE COUNT [2]: 5.8 x10E6/uL
HEMATOCRIT [2]: 36.3%
HEMOGLOBIN [2]: 14.23 G/DL
LEUKOCYTE COUNT [2]: 17.33 x10E3/uL
LYMPHOCYTE [2]: 93.33%
MEAN CORPUSCULAR HEMOGLOBIN [2]: 24.53 pg
MEAN CORPUSCULAR HEMOGLOBIN CONCENTRATION [2]: 39.23 G/DL
MEAN CORPUSCULAR VOLUME [2]: 62.57 fL
MONOCYTE [2]: 0.33%
NEUTROPHIL [2]: 6.33%
NUCLEATED RED BLOOD CELLS [2]: 0 /100WBC
PLATELET COUNT [2]: 1008.33 x10E3/uL
ALANINE AMINOTRANSFERASE [2]: 60.33 u/L
ALBUMIN [2]: 4.17 G/DL
ALKALINE PHOSPHATASE [2]: 282 u/L
ASPARTATE AMINOTRANSFERASE [2]: 86 u/L
BLOOD UREA NITROGEN [2]: 29.33 mg/dL
CARBON DIOXIDE [2]: 33.33 mmol/L
CHLORIDE [2]: 93.33 MEQ/L
CHOLESTEROL [2]: 69.33 mg/dL
CREATINE PHOSPHOKINASE [2]: 98.67 u/L
CREATININE [2]: 0.32 mg/dL
GLUCOSE [2]: 148 mg/dL
LACTATE DEHYDROGENASE [2]: 104.67 u/L
LIPASE [2]: 12 u/L
PHOSPHORUS [2]: 8.13 mg/dL
POTASSIUM [2]: 5.2 MEQ/L
SODIUM [2]: 142.37 MEQ/L
TOTAL BILIRUBIN [2]: 0.2 mg/dL
TOTAL PROTEIN [2]: 5.37 G/DL
URIC ACID [2]: 1.2 mg/dL
ABSOLUTE BASOPHIL [3]: 0 CELLS/uL
ABSOLUTE EOSINOPHIL [3]: 0 CELLS/uL
ABSOLUTE LYMPHOCYTE [3]: 12824.33 CELLS/uL
ABSOLUTE MONOCYTE [3]: 353.67 CELLS/uL
ABSOLUTE SEGMENTED NEUTROPHIL [3]: 788.67 CELLS/uL
BASOPHIL [3]: 0%
EOSINOPHIL [3]: 0%
ERYTHROCYTE COUNT [3]: 6.15 x10E6/uL
HEMATOCRIT [3]: 38.4%
HEMOGLOBIN [3]: 14.97 G/DL
LEUKOCYTE COUNT [3]: 13.97 x10E3/uL
LYMPHOCYTE [3]: 92%
MEAN CORPUSCULAR HEMOGLOBIN [3]: 24.37 pg
MEAN CORPUSCULAR HEMOGLOBIN CONCENTRATION [3]: 38.97 G/DL
MEAN CORPUSCULAR VOLUME [3]: 62.5 fL
MONOCYTE [3]: 2.33%
NEUTROPHIL [3]: 5.67%
NUCLEATED RED BLOOD CELLS [3]: 0.33 /100WBC
PLATELET COUNT [3]: 1188.33 x10E3/uL
ALANINE AMINOTRANSFERASE [3]: 70 u/L
ALBUMIN [3]: 4.5 G/DL
ALKALINE PHOSPHATASE [3]: 395.67 u/L
ASPARTATE AMINOTRANSFERASE [3]: 104 u/L
BLOOD UREA NITROGEN [3]: 29 mg/dL
CARBON DIOXIDE [3]: 38.33 mmol/L
CHLORIDE [3]: 86.33 MEQ/L
CHOLESTEROL [3]: 65.33 mg/dL
CREATINE PHOSPHOKINASE [3]: 234.67 u/L
CREATININE [3]: 0.3 mg/dL
GLUCOSE [3]: 176 mg/dL
LACTATE DEHYDROGENASE [3]: 220.33 u/L
LIPASE [3]: 10.67 u/L
PHOSPHORUS [3]: 8.93 mg/dL
POTASSIUM [3]: 4.3 MEQ/L
SODIUM [3]: 142.87 MEQ/L
TOTAL BILIRUBIN [3]: 0.1 mg/dL
TOTAL PROTEIN [3]: 6.83 G/DL
URIC ACID [3]: 0.6 mg/dL
